Activity calls are given as the source filed them. The rule behind the calls is not given here.
How the values were obtained:
[1] = biological target: Calcium/calmodulin-dependent protein kinase type II subunit alpha (Homo sapiens) (UniProt Q9UQM7); experiment: Inhibition of human CAMK2A at 1 uM using KKALRRQETVDAL as substrate in presence of [gamma33P]-ATP by HotSpot assay relative to control
[2] = biological target: Tyrosine-protein kinase receptor TYRO3 (Homo sapiens) (UniProt Q06418); experiment: Inhibition of human TYRO3 at 1 uM using poly (Glu, Tyr)4:1 as substrate in presence of [gamma33P]-ATP by HotSpot assay relative to control
[3] = test system: EML4-ALK (Homo sapiens), Q9UM73+Q9HC35 [L1152R]; settings: BaF3, time 3-5 weeks
[4] = biological target: Tyrosine-protein kinase JAK1 (Homo sapiens) (UniProt P23458); experiment: Inhibition of human JAK1 at 1 uM using MBP as substrate in presence of [gamma33P]-ATP by HotSpot assay relative to control
[5] = biological target: Cyclin-dependent kinase 5/CDK5 activator 1 (Homo sapiens) (UniProt Q00535+Q15078); experiment: Inhibition of human CDK5/p25 at 1 uM using RB protein as substrate in presence of [gamma33P]-ATP by HotSpot assay relative to control; type: protein-complex assay
[6] = biological target: Discoidin domain-containing receptor 2 (Homo sapiens) (UniProt Q16832); experiment: Inhibition of human DDR2 at 1 uM using KKSRGDYMTMQIG as substrate in presence of [gamma33P]-ATP by HotSpot assay relative to control
[7] = test system: EML4-ALK (Homo sapiens), Q9UM73+Q9HC35 [L1196M]; settings: BaF3, dose 200.0 nmol/L, time 3-5 weeks
[8] = biological target: SRSF protein kinase 2 (Homo sapiens) (UniProt P78362); experiment: Inhibition of human SRPK2 at 1 uM using GRSRSRSRSR as substrate in presence of [gamma33P]-ATP by HotSpot assay relative to control
SRSF protein kinase 2 (Homo sapiens), sequence (P78362 whole entry, looked up): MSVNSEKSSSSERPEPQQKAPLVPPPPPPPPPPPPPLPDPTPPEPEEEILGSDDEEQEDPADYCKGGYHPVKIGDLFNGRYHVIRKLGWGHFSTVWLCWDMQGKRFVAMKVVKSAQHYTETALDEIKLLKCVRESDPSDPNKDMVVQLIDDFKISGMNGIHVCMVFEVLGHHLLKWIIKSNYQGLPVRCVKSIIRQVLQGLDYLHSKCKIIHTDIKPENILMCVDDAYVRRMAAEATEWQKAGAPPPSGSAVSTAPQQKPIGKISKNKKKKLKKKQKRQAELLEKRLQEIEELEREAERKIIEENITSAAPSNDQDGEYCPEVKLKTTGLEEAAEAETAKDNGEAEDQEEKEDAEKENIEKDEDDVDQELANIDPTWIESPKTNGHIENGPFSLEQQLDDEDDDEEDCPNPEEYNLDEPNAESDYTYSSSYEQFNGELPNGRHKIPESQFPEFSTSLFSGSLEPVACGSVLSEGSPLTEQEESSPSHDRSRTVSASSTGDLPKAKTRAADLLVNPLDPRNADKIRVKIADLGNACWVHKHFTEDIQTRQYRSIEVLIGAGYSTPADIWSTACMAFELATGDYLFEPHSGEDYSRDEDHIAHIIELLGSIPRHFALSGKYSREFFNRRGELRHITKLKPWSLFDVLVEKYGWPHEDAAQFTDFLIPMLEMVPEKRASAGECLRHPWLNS

[9] = biological target: Calcium/calmodulin-dependent protein kinase type 1D (Homo sapiens) (UniProt Q8IU85); experiment: Inhibition of human CAMK1D at 1 uM using KKALRRQETVDAL as substrate in presence of [gamma33P]-ATP by HotSpot assay relative to control
Calcium/calmodulin-dependent protein kinase type 1D (Homo sapiens), sequence (Q8IU85 whole entry, looked up): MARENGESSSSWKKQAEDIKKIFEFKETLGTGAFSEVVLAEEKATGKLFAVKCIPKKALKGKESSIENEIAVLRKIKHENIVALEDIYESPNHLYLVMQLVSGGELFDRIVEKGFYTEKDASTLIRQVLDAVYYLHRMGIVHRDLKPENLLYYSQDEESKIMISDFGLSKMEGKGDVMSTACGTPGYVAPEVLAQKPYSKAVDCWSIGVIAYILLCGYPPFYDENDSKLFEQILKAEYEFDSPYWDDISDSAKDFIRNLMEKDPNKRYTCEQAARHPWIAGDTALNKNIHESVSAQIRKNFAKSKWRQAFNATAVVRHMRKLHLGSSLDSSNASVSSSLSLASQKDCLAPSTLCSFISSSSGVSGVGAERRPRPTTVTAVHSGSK

NCI-H2228 = experiment: Antitumor activity against ALK positive human NCI-H2228 cells xenografted in SCID beige mouse assessed as inhibition of tumor growth administered orally once daily for 21 days; type: functional, cell-based; settings: dose 10-50 mg/kg, route po, time 21.0 day
[10] = biological target: Dual specificity mitogen-activated protein kinase kinase 2 (Homo sapiens) (UniProt P36507); experiment: Inhibition of human MAP2K2 at 1 uM using ERK2 as substrate in presence of [gamma33P]-ATP by HotSpot assay relative to control
[11] = biological target: Mitogen-activated protein kinase 13 (Homo sapiens) (UniProt O15264); experiment: Inhibition of human MAPK13 at 1 uM using MBP as substrate in presence of [gamma33P]-ATP by HotSpot assay relative to control
[12] = Toxicity in SCID Beige mouse xenografted with ALK positive human KARPAS-299 cells assessed as effect on body weight at 10 to 50 mg/kg; type: organism-based; settings: in vivo, dose 10-50 mg/kg
[13] = biological target: Mitogen-activated protein kinase 11 (Homo sapiens) (UniProt Q15759); experiment: Inhibition of human MAPK11 at 1 uM using MBP as substrate in presence of [gamma33P]-ATP by HotSpot assay relative to control
Mitogen-activated protein kinase 11 (Homo sapiens), sequence (Q15759 whole entry): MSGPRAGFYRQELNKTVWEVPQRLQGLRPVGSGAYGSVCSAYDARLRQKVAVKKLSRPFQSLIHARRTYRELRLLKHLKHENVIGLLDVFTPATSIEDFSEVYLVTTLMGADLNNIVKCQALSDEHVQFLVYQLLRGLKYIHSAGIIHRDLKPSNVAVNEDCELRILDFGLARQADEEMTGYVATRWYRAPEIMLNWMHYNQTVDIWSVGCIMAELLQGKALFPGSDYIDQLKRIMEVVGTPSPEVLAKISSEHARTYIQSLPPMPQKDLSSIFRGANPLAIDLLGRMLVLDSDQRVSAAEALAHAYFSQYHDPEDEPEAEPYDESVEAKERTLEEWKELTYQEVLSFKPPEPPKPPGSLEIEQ

[14] = biological target: Ephrin type-A receptor 5 (Homo sapiens) (UniProt P54756); experiment: Inhibition of human EPHA5 at 1 uM using poly (Glu, Tyr)4:1 as substrate in presence of [gamma33P]-ATP by HotSpot assay relative to control
cells = settings: Homo sapiens, BaF3, 72 h
[15] = biological target: Platelet-derived growth factor receptor beta (Homo sapiens) (UniProt P09619); experiment: Inhibition of human PDGFRbeta at 1 uM using poly (Glu, Tyr)4:1 as substrate in presence of [gamma33P]-ATP by HotSpot assay relative to control
[16] = biological target: G protein-coupled receptor kinase 4 (Homo sapiens) (UniProt P32298); experiment: Inhibition of human GRK4 at 1 uM using casein as substrate in presence of [gamma33P]-ATP by HotSpot assay relative to control
G protein-coupled receptor kinase 4 (Homo sapiens), sequence (P32298 whole entry, looked up): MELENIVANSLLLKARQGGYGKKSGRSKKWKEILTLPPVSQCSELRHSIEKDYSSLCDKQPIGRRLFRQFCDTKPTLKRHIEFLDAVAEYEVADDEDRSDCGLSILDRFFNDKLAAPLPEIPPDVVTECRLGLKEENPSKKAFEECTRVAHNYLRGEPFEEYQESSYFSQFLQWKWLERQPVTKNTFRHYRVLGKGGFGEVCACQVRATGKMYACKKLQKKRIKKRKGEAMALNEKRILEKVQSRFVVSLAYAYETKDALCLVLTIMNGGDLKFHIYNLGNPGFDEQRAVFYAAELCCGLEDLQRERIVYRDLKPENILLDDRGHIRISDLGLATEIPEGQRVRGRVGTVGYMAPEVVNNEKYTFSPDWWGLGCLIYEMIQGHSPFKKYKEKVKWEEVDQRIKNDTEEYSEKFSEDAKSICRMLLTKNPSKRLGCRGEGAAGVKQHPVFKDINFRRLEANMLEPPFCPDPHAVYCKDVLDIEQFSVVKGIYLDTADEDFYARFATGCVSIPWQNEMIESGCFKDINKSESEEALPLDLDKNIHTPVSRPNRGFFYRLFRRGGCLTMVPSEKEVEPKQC

[17] = biological target: Serine/threonine-protein kinase N2 (Homo sapiens) (UniProt Q16513); experiment: Inhibition of human PKN2 at 1 uM using LRRASLG as substrate in presence of [gamma33P]-ATP by HotSpot assay relative to control
in vitro = settings: mouse, BaF3 cells
[18] = biological target: Mitogen-activated protein kinase 9 (Homo sapiens) (UniProt P45984); experiment: Inhibition of human JNK2a2 at 1 uM using ATF2 as substrate in presence of [gamma33P]-ATP by HotSpot assay relative to control
[19] = biological target: Tyrosine-protein kinase Fes/Fps (Homo sapiens, UniProt P07332); experiment: Inhibition of human FES using poly (Glu, Tyr)4:1 as substrate in presence of [gamma33P]-ATP by HotSpot assay
[20] = biological target: Cyclin-dependent kinase 2/cyclin E1 (Homo sapiens) (UniProt P24864+P24941); experiment: Inhibition of human CDK2/CyclinE at 1 uM using RB protein as substrate in presence of [gamma33P]-ATP by HotSpot assay relative to control; type: protein-complex assay
[21] = biological target: Serine/threonine-protein kinase Chk1 (Homo sapiens, UniProt O14757); experiment: Inhibition of human CHEK1 using KKKVSRSGLYRSPSMPENLNRPR as substrate in presence of [gamma33P]-ATP by HotSpot assay
[22] = biological target: Mitogen-activated protein kinase kinase kinase kinase 4 (Homo sapiens) (UniProt O95819); experiment: Inhibition of human MAP4K4 at 1 uM using MBP as substrate in presence of [gamma33P]-ATP by HotSpot assay relative to control
Mitogen-activated protein kinase kinase kinase kinase 4 (Homo sapiens), sequence (O95819 2-1239 limits assumed): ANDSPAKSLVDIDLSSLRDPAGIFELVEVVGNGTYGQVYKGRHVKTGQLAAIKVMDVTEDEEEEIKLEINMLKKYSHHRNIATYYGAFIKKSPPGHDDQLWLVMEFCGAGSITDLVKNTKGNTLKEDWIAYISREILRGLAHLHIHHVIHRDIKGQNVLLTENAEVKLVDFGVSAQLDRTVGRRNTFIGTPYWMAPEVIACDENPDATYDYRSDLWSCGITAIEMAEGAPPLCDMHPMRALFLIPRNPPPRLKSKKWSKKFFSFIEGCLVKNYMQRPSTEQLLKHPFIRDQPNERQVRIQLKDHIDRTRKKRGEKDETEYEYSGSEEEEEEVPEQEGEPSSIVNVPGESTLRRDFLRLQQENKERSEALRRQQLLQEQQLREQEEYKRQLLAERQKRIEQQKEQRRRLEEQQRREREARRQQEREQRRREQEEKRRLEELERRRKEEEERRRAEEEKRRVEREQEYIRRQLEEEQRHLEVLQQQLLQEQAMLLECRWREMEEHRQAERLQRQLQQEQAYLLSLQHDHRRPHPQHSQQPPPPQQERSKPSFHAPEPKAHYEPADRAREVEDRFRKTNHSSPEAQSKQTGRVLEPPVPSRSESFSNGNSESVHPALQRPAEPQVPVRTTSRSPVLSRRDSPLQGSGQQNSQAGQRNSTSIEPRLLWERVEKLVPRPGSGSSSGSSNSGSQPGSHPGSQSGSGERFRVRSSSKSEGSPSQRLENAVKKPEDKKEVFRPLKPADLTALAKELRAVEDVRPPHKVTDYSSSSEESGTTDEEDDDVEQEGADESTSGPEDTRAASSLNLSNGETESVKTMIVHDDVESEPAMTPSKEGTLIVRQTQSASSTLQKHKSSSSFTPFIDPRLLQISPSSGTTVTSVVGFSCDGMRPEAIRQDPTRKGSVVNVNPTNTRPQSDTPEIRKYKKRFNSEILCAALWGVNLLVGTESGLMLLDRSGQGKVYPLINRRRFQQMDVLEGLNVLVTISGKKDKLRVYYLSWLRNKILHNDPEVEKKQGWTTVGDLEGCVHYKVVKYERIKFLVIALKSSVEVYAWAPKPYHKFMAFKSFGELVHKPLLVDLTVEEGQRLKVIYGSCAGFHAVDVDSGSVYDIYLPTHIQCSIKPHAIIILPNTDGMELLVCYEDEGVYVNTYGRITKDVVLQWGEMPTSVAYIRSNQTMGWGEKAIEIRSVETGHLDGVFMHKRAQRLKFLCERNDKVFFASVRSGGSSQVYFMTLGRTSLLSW

[23] = biological target: Tyrosine-protein kinase JAK3 (Homo sapiens) (UniProt P52333); experiment: Inhibition of human JAK3 at 1 uM using MBP as substrate in presence of [gamma33P]-ATP by HotSpot assay relative to control
Tyrosine-protein kinase JAK3 (Homo sapiens), sequence (P52333 whole entry): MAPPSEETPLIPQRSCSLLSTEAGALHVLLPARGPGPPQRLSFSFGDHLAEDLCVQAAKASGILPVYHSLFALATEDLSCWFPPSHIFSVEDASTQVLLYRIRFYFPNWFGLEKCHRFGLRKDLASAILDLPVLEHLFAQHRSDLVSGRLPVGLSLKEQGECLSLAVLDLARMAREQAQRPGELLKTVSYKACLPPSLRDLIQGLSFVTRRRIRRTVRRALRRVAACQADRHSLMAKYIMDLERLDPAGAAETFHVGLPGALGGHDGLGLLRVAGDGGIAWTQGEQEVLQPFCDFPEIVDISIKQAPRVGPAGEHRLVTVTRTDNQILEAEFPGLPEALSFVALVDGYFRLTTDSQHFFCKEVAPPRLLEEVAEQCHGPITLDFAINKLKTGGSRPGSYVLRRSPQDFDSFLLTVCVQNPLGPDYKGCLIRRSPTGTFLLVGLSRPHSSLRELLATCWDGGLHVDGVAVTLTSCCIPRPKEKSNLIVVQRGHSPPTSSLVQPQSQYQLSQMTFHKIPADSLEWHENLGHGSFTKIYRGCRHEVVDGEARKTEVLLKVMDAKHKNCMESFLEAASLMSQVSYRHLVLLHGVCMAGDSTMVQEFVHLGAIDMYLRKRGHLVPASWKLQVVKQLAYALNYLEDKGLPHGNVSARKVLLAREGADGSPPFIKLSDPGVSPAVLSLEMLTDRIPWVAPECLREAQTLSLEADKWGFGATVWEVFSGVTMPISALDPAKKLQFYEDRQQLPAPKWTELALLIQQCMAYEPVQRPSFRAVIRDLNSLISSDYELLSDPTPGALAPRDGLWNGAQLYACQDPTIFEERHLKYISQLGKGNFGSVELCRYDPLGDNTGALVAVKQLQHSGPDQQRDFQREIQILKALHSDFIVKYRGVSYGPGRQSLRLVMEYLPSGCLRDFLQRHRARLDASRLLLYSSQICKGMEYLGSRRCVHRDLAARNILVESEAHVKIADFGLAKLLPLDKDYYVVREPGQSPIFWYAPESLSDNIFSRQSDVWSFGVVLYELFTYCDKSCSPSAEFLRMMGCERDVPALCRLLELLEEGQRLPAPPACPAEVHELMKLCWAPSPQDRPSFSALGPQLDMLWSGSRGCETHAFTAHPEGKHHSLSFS

[24] = biological target: Dual specificity protein kinase CLK2 (Homo sapiens, UniProt P49760); experiment: Inhibition of human CLK2 using MBP as substrate in presence of [gamma33P]-ATP by HotSpot assay
KARPAS-299 = experiment: Antitumor activity against ALK positive human KARPAS-299 cells xenografted in SCID beige mouse assessed as tumor regression at 50 mg/kg, po administered once daily for 14 days and measured after 13 days relative to control; type: functional; settings: time 27 day
[25] = test system: EML4-ALK (Homo sapiens), Q9UM73+Q9HC35 [C1156Y]; settings: BaF3, dose 500.0 nmol/L, time 3-5 weeks

Calcium/calmodulin-dependent protein kinase type II subunit alpha (Homo sapiens), sequence (Q9UQM7 whole entry): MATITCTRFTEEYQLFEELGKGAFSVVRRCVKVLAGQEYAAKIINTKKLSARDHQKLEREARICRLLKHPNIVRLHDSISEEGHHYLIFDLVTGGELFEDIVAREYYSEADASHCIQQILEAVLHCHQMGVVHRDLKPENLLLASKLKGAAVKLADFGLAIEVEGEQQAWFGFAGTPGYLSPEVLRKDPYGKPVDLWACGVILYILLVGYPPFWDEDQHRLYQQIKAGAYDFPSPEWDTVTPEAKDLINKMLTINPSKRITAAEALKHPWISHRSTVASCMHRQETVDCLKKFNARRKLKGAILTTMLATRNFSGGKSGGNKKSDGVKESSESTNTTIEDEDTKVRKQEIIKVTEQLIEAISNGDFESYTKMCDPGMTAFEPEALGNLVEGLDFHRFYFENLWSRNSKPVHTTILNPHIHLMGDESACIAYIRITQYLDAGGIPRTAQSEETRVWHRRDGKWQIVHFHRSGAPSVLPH

Work on COc1cc(N2CCC(N3CCN(C)CC3)CC2)ccc1Nc1ncc(Cl)c(Nc2ccccc2P(C)(C)=O)n1 [BRIGATINIB] yielded an inhibition [1] of less than 90%, an inhibition [2] of less than 90% and an IC90 [3] of 34 nM. The inhibition [4] was less than 90%, the inhibition [5] was less than 90% and the inhibition [6] was less than 90%. The inhibition [7] was “inactive”, the inhibition [8] was less than 90% and the inhibition [9] was less than 90%. The Activity (NCI-H2228) was “Dose-Dependent Effect”, the inhibition [10] was less than 90% and the inhibition [11] was less than 90%. For the same compound, the Activity [12] was “Non-Toxic”, the inhibition [13] was less than 90% and the inhibition [14] was less than 90%. The IC50 (cells) was 17 nM, the inhibition [15] was less than 90% and the inhibition [16] was less than 90%. The inhibition [17] was less than 90%, the IC50 at 72 h (in vitro) was 3210 nM and the inhibition [18] was less than 90%. The IC50 [19] was 3.5 nM, the inhibition [20] was less than 90% and the IC50 [21] was 30 nM. For the same compound, the inhibition [22] was less than 90%, the inhibition [23] was less than 90% and the IC50 [24] was 240 nM. For the same compound, the Activity (KARPAS-299) was roughly 100% and the inhibition [25] was “Active”.

Reference: ChEMBL document CHEMBL5696443 (Clin Cancer Res, 2016)
